According to ChEMBL document CHEMBL5532639, “Heterocyclic pyrimidine derivatives as promising antibacterial agents” (Eur J Med Chem, 2023):
≈ marks a conversion by molar mass, not a printed value.

Assays:
Escherichia coli [1] = experiment: Antibacterial activity against Escherichia coli assessed as inhibition of microbial growth by broth micro-dilution method; assay type: functional
Pseudomonas aeruginosa [2] = experiment: Antibacterial activity against Pseudomonas aeruginosa assessed as inhibition of microbial growth by broth micro-dilution method; assay type: functional
Escherichia coli [3] = experiment: Antibacterial activity against Escherichia coli assessed as reduction in bacterial growth incubated for 16 to 20 hrs by Mueller-Hinton broth based two-fold serial dilution method; assay type: functional; conditions: time 16-20 hrs
Klebsiella pneumoniae [4] = experiment: Antibacterial activity against Klebsiella pneumoniae assessed as reduction in bacterial growth by broth microdilution method; assay type: functional
Streptococcus pyogenes [5] = experiment: Antibacterial activity against Streptococcus pyogenes assessed as inhibition of microbial growth by broth micro-dilution method; assay type: functional
Escherichia coli [6] = experiment: Antibacterial activity against Escherichia coli assessed as reduction in bacterial growth by broth microdilution method; assay type: functional
Pseudomonas aeruginosa [7] = experiment: Antibacterial activity against Pseudomonas aeruginosa assessed as reduction in microbial growth after 18 hrs by MTT based broth dilution method; assay type: functional
Streptococcus pyogenes [8] = experiment: Antibacterial activity against Streptococcus pyogenes assessed as reduction in microbial growth incubated for 24 hrs by broth micro-dilution method; assay type: functional
Escherichia coli [9] = experiment: Antibacterial activity Escherichia coli assessed as reduction in bacterial growth; assay type: functional
[10] = system: Staphylococcus epidermidis; experiment: Antibacterial activity against Staphylococcus epidermidis assessed as reduction in microbial growth; assay type: functional
Bacillus subtilis [11] = experiment: Antibacterial activity against Bacillus subtilis assessed as reduction in bacterial cell viability by well plate method; assay type: functional
Staphylococcus aureus [12] = experiment: Antibacterial activity against Staphylococcus aureus assessed as inhibition of microbial growth by broth micro-dilution method; assay type: functional
Pseudomonas aeruginosa [13] = experiment: Antimicrobial activity against Pseudomonas aeruginosa assessed as diameter of inhibition zone incubated for 24 hrs by well diffusion assay; assay type: functional
Staphylococcus aureus [14] = experiment: Antibacterial activity against Staphylococcus aureus assessed as bacterial growth inhibition by measuring zone of inhibition at 50 ug/ml by agar cup diffusion assay; assay type: functional; conditions: read-out: IZ
Micrococcus luteus = experiment: Antimicrobial activity against Micrococcus luteus assessed as diameter of inhibition zone incubated for 24 hrs by well diffusion assay; assay type: functional
Escherichia coli [15] = experiment: Antibacterial activity against Escherichia coli assessed as bacterial growth inhibition by measuring zone of inhibition at 50 ug/ml by agar cup diffusion assay; assay type: functional; conditions: read-out: IZ
Salmonella typhimurium [16] = experiment: Antibacterial activity against Salmonella typhimurium DT104 assessed as bacterial growth inhibition by measuring zone of inhibition at 50 ug/ml by agar cup diffusion assay; assay type: functional, Salmonella enterica subsp. enterica serovar Typhimurium; conditions: Salmonella enterica, read-out: IZ
Bacillus subtilis [17] = experiment: Antimicrobial activity against Bacillus subtilis assessed as diameter of inhibition zone incubated for 24 hrs by well diffusion assay; assay type: functional
Salmonella typhimurium [18] = experiment: Antimicrobial activity against Salmonella typhimurium DT104 assessed as diameter of inhibition zone incubated for 24 hrs by well diffusion assay; assay type: functional, Salmonella enterica subsp. enterica serovar Typhimurium
Bacillus subtilis [19] = experiment: Antibacterial activity against Bacillus subtilis assessed as bacterial growth inhibition by measuring zone of inhibition at 50 ug/ml by agar cup diffusion assay; assay type: functional; conditions: read-out: IZ
Salmonella typhimurium [20] = experiment: Antimicrobial activity against Salmonella typhimurium DT104 assessed as inhibition of microbial growth incubated for 18 hrs by CLSI protocol based Mueller-Hinton broth assay; assay type: functional, Salmonella enterica subsp. enterica serovar Typhimurium; conditions: Salmonella enterica
Shigella boydii = experiment: Antibacterial activity against Shigella boydii assessed as inhibition of bacterial growth measured after 18 to 20 hrs by broth microdilution method; assay type: functional; conditions: time 18-20 hrs
Enterococcus faecalis = experiment: Antimicrobial activity against Enterococcus faecalis assessed as inhibition of microbial growth incubated for 18 hrs by CLSI protocol based Mueller-Hinton broth assay; assay type: functional
Klebsiella pneumoniae [21] = experiment: Antimicrobial activity against Klebsiella pneumoniae assessed as inhibition of microbial growth incubated for 18 hrs by CLSI protocol based Mueller-Hinton broth assay; assay type: functional
Staphylococcus aureus [22] = experiment: Antimicrobial activity against Staphylococcus aureus assessed as inhibition of microbial growth incubated for 18 hrs by CLSI protocol based Mueller-Hinton broth assay; assay type: functional
Aeromonas hydrophila = experiment: Antibacterial activity against Aeromonas hydrophila assessed as inhibition of microbial growth incubated for 24 hrs by CLSI protocol based Mueller-Hinton broth assay; assay type: functional
[23] = system: Salmonella enterica subsp. enterica serovar Paratyphi B; experiment: Antibacterial activity against Salmonella paratyphi B CICC 21495 assessed as reduction in […]; assay type: functional; conditions: time lower 48 hrs
[24] = system: Staphylococcus epidermidis; experiment: Antimicrobial activity against Staphylococcus epidermidis assessed as inhibition of microbial growth incubated for 18 hrs by CLSI protocol based Mueller-Hinton broth assay; assay type: functional
Edwardsiella tarda = experiment: Antimicrobial activity against Edwardsiella tarda assessed as inhibition of microbial growth incubated for 18 hrs by CLSI protocol based Mueller-Hinton broth assay; assay type: functional
Morganella morganii [25] = experiment: Antibacterial activity against Morganella morganii UM573 assessed as bacterial growth inhibition incubated for 20 to 22 hrs by CLSI based analysis; assay type: functional; conditions: time 20-22 hrs
Plesiomonas shigelloides = experiment: Antibacterial activity against Plesiomonas shigelloides assessed as inhibition of bacterial growth measured after 18 to 20 hrs by broth microdilution method; assay type: functional; conditions: time 18-20 hrs
Pseudomonas aeruginosa [26] = experiment: Antimicrobial activity against Pseudomonas aeruginosa assessed as inhibition of microbial growth incubated for 18 hrs by CLSI protocol based Mueller-Hinton broth assay; assay type: functional
Vibrio cholerae [27] = experiment: Antibacterial activity against Vibrio cholerae assessed as inhibition of bacterial growth incubated for 24 hrs by broth microdilution method; assay type: functional
Vibrio parahaemolyticus = experiment: Antibacterial activity against Vibrio parahaemolyticus assessed as reduction in bacterial growth inhibition measured after 24 hrs by Mueller Hinton Agar dilution method; assay type: functional
Proteus vulgaris = experiment: Antimicrobial activity against Proteus vulgaris assessed as microbial growth inhibition incubated for 24 hrs by broth microdilution method; assay type: functional
Vibrio cholerae [28] = experiment: Antibacterial activity against Vibrio cholerae assessed as reduction in bacterial growth measured after 18 to 20 hrs by broth microdilution method; assay type: functional; conditions: time 18-20 hrs
Shigella sonnei = experiment: Antibacterial activity against Shigella sonnei assessed as inhibition of bacterial growth measured after 18 to 20 hrs by broth microdilution method; assay type: functional; conditions: time 18-20 hrs
Bacillus subtilis [29] = experiment: Antibacterial activity against Bacillus subtilis assessed as reduction in bacterial growth incubated for 24 hrs by CLSI protocol based Mueller-Hinton broth assay; assay type: functional
Citrobacter freundii = experiment: Antibacterial activity against multidrug-resistant Citrobacter freundii assessed as bacterial growth inhibition incubated for 20 to 22 hrs by CLSI based analysis; assay type: functional; conditions: time 20-22 hrs
Vibrio cholerae [30] = experiment: Antibacterial activity against Vibrio cholerae measured after 18 to 20 hrs by broth microdilution method; assay type: functional; conditions: time 18-20 hrs
Enterobacter sp. = experiment: Antibacterial activity against Enterobacter sp. assessed as inhibition of bacterial growth; assay type: functional
Morganella morganii [31] = experiment: Antibacterial activity against Morganella morganii UM869 incubated for 16 to 18 hrs by broth microdilution method; assay type: functional; conditions: time 16-18 hrs
Providencia rettgeri = experiment: Antibacterial activity against Providencia rettgeri assessed as bacterial growth inhibition incubated for 18 hrs by CLSI protocol based Mueller-Hinton broth assay; assay type: functional
Salmonella typhimurium [32] = experiment: Antibacterial activity against Salmonella typhimurium DT104 assessed as reduction in bacterial growth inhibition measured after 24 hrs by Mueller Hinton Agar dilution method; assay type: functional, Salmonella enterica subsp. enterica serovar Typhimurium; conditions: Salmonella enterica
Salmonella enterica = experiment: Antimicrobial activity against Salmonella enterica assessed as inhibition of microbial growth incubated for 18 hrs by CLSI protocol based Mueller-Hinton broth assay; assay type: functional
Shigella flexneri = experiment: Antibacterial activity against Shigella flexneri assessed as inhibition of bacterial growth incubated for 24 hrs by broth microdilution method; assay type: functional
Escherichia coli [33] = experiment: Antimicrobial activity against Escherichia coli assessed as inhibition of microbial growth incubated for 18 hrs by CLSI protocol based Mueller-Hinton broth assay; assay type: functional
Salmonella paratyphi = experiment: Antibacterial activity against Salmonella paratyphi A CICC 21501 incubated overnight by standard microtiter dilution method; assay type: functional, Salmonella enterica subsp. enterica serovar Paratyphi A; conditions: Salmonella enterica
Staphylococcus aureus [34] = experiment: Antibacterial activity against Staphylococcus aureus assessed as bacterial growth inhibition; assay type: functional
Pseudomonas aeruginosa [35] = experiment: Antibacterial activity against Pseudomonas aeruginosa assessed as reduction in microbial growth by broth microdilution method; assay type: functional

Structure (SMILES): O=C(O)c1cn(C2CC2)c2cc(N3CCNCC3)c(F)cc2c1=O [CIPROFLOXACIN]
- MIC (Escherichia coli [1]): 25 µg/mL
- MIC (Pseudomonas aeruginosa [2]): 200 µg/mL
- MIC (Escherichia coli [3]): 25 µg/mL (≈ 75.4 µM)
- MIC (Klebsiella pneumoniae [4]): 22 µg/mL (≈ 66.4 µM)
- MIC (Streptococcus pyogenes [5]): 50 µg/mL
- MIC (Escherichia coli [6]): 25 µg/mL (≈ 75.4 µM)
- MIC (Pseudomonas aeruginosa [7]): 22 µg/mL
- MIC (Streptococcus pyogenes [8]): 12.5 µg/mL
- MIC (Escherichia coli [9]): 22 µg/mL (≈ 66.4 µM)
- MIC [10]: 22 µg/mL
- MIC (Bacillus subtilis [11]): 24 µg/mL (≈ 72.4 µM)
- MIC (Staphylococcus aureus [12]): 50 µg/mL

Structure (SMILES): CN(C)[C@@H]1C(O)=C(C(N)=O)C(=O)[C@@]2(O)C(O)=C3C(=O)c4c(O)cccc4[C@@](C)(O)[C@H]3C[C@@H]12 [TETRACYCLINE]
- inhibition zone (IZ) (Pseudomonas aeruginosa [13]): 18 mm
- zone of inhibition at 50 µg/mL (Staphylococcus aureus [14]): 19 mm
- inhibition zone (IZ) (Micrococcus luteus): 16 mm
- zone of inhibition at 50 µg/mL (Escherichia coli [15]): 15 mm
- zone of inhibition at 50 µg/mL (Salmonella typhimurium [16]): 24 mm
- inhibition zone (IZ) (Bacillus subtilis [17]): 14 mm
- inhibition zone (IZ) (Salmonella typhimurium [18]): 8 mm
- zone of inhibition at 50 µg/mL (Bacillus subtilis [19]): 21 mm

Structure (SMILES): COc1cc(Cc2cnc(N)nc2N)cc(OC)c1OC [TRIMETHOPRIM]
- MIC (Salmonella typhimurium [20]): 4.88 µg/mL
- MIC (Shigella boydii): 9.76 µg/mL (≈ 33.6 µM)
- MIC (Enterococcus faecalis): 78.1 µg/mL
- MIC (Klebsiella pneumoniae [21]): 5000 µg/mL
- MIC (Staphylococcus aureus [22]): > 5000 µg/mL
- MIC (Aeromonas hydrophila): 1250 µg/mL
- MIC [23]: 9.76 µg/mL (≈ 33.6 µM)
- MIC [24]: > 5000 µg/mL
- MIC (Edwardsiella tarda): 312 µg/mL
- MIC (Morganella morganii [25]): 156 µg/mL (≈ 538 µM)
- MIC (Plesiomonas shigelloides): 4.88 µg/mL (≈ 16.8 µM)
- MIC (Pseudomonas aeruginosa [26]): 5000 µg/mL
- MIC (Vibrio cholerae [27]): 39.1 µg/mL (≈ 135 µM)
- MIC (Vibrio parahaemolyticus): 2.44 µg/mL (≈ 8.4 µM)
- MIC (Proteus vulgaris): 156 µg/mL (≈ 538 µM)
- MIC (Vibrio cholerae [28]): 5000 µg/mL (≈ 17200 µM)
- MIC (Shigella sonnei): 9.76 µg/mL (≈ 33.6 µM)
- MIC (Bacillus subtilis [29]): 5000 µg/mL (≈ 17200 µM)
- MIC (Citrobacter freundii): 19.5 µg/mL (≈ 67.3 µM)
- MIC (Vibrio cholerae [30]): 1.22 µg/mL (≈ 4.2 µM)
- MIC (Enterobacter sp.): 156 µg/mL (≈ 538 µM)
- MIC (Morganella morganii [31]): 156 µg/mL (≈ 538 µM)
- MIC (Providencia rettgeri): 2500 µg/mL (≈ 8610 µM)
- MIC (Salmonella typhimurium [32]): > 5000 µg/mL
- MIC (Salmonella enterica): 4.88 µg/mL
- MIC (Shigella flexneri): 156 µg/mL (≈ 538 µM)
- MIC (Escherichia coli [33]): 19.5 µg/mL
- MIC (Salmonella paratyphi): 156 µg/mL (≈ 538 µM)

Structure (SMILES): O=C1CCCC2=C1C(c1ccc(Cl)cc1)c1c(nc(-c3cc4ccccc4oc3=O)[nH]c1=O)O2 (stereo unspecified)
- MIC (Staphylococcus aureus [34]): 100 µg/mL (≈ 211 µM)
- MIC (Klebsiella pneumoniae [4]): 100 µg/mL (≈ 211 µM)
- MIC (Escherichia coli [6]): 50 µg/mL (≈ 106 µM)
- MIC (Pseudomonas aeruginosa [7]): 100 µg/mL
- MIC (Escherichia coli [9]): 100 µg/mL (≈ 211 µM)
- MIC [10]: 50 µg/mL
- MIC (Bacillus subtilis [11]): 25 µg/mL (≈ 52.9 µM)
- MIC (Pseudomonas aeruginosa [35]): 100 µg/mL
